For one assay, the system named is phyB-9 mutant plants. Put plainly: Primary root length in the presence of 15 μM 5-MT, phyB-9 plants overexpressing MYC2 variants. Format: in vivo, Arabidopsis thaliana. To be noted: 14-day-old seedlings, overexpression in phyB-9, normalized to the same genotype without 5-MT. How it is done:
Primary root length in the presence of 15 μM 5-MT was evaluated for 14-day-old seedlings of non-transgenic (NT) phyB-9 mutant plants or phyB-9 mutant plants that overexpressed either wild-type (WT) MYC2 or a MYC2^D105N/E165K mutant allele that harbors two point mutations (D105N and E165K) that prevent JAZ binding. Primary root length was determined as the root length of a given genotype grown in the presence of 15 μM 5-MT normalized to the root length of the same genotype grown in the absence of 5-MT.

The next assay concerns Arabidopsis. Put plainly: Resistance to 5-methyl tryptophan (5-MT) of transgenic Arabidopsis overexpressing MYC transcription factors. Format: in vivo, Arabidopsis thaliana. The settings on record: for 5-MT resistance: overexpression from the 35S promoter, phyB mutant background, 50 μM 5-methyl-tryptophan, 3 weeks, preliminary results. On the procedure: Functional analysis of these and other MYC^D transcription factors in planta was performed by overexpressing the transcription factors in Arabidopsis with subsequent testing of the resulting transgenic lines for increased resistance to 5-methyl tryptophan (5-MT), a toxic analog of the amino acid tryptophan.

A further assay deals with JAZ proteins. The settings on record: literature (Goossens et al., 2015; Smolen et al., 2002); cited from earlier work.
The target in the next assay is T1, JAZ10.4 (Arabidopsis thaliana, UniProt Q93ZM9).
T1 construct: expressed in transfected cells; host or cells: yeast (two-hybrid)
T1 sequence (Q93ZM9 1-167 isoform Q93ZM9-3): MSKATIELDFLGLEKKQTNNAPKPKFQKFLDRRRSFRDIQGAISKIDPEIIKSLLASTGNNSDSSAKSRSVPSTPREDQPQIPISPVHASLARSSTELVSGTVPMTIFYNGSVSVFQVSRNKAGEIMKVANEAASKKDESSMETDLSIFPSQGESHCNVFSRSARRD
Put plainly: Yeast two-hybrid analysis of JAZ10.4 (bait) interaction with wild-type MYC3 and MYC3 point mutants (prey). The settings on record: JAZ10.4 bait (CMID, no Jas motif), MYC3 variant prey. It is filed as binding. On the procedure: The structural information from the MYC3-CMID complex was used to generate site-directed mutants of MYC3 that have reduced interaction with the JAZ10.4 splice variant, which contains a CMID but not a Jas motif (Chung and Howe 2009). Several promising mutants were made.
(§1) The interactions of mutants MYC3^L152A and MYC3^E148A/M155A with JAZ10.4 and MED25 was evaluated using yeast two-hybrid analyses to visualize MED25 and JAZ10.4 (bait) interactions with wild-type MYC3 and MYC3 point mutants (prey).

In a further assay the target is T2, MED25 (Arabidopsis thaliana, UniProt Q7XYY2).
T2 construct: expressed in transfected cells; host or cells: yeast (two-hybrid)
T2 sequence (Q7XYY2 1-836): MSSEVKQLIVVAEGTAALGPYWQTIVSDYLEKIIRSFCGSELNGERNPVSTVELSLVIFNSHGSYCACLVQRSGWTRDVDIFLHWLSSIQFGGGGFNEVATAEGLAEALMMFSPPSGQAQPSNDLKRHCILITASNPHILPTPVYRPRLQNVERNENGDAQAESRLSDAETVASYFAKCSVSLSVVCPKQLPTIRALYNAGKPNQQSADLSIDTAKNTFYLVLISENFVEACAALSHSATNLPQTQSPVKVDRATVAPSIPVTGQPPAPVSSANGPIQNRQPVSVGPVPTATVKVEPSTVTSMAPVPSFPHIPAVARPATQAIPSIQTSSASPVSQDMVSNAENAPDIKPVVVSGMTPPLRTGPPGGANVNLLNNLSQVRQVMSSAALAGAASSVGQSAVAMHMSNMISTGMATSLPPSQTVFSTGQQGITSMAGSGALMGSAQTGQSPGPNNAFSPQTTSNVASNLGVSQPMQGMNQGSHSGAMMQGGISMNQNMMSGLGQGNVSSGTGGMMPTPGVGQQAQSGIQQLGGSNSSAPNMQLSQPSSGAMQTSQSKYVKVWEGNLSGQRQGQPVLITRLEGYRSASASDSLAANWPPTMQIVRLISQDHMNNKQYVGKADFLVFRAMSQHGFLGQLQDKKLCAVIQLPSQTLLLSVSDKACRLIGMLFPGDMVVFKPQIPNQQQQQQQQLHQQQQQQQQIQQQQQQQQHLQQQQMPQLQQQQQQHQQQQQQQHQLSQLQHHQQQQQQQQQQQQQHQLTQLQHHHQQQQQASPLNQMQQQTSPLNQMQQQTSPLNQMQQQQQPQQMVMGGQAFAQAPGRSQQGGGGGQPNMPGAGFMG
Put plainly: Yeast two-hybrid analysis of MED25 (bait) interaction with wild-type MYC3 and MYC3 point mutants (prey). It is filed as binding. To be noted: MYC3 variant prey. How it is done:
as §1

For the substance “MYC2^D105N/E165K: MYC2 mutant allele that harbors two point mutations (D105N and E165K) that prevent JAZ binding”, the primary root length result in the assay with phyB-9 mutant plants is “best primary root growth”.

As to “MYC3^D94N: dominant MYC3 variant (atr2D allele), Asp-to-Asn missense mutation in the JAZ-interacting domain”, the 5-MT resistance result with Arabidopsis is reported as “confers 5-MT resistance”. In the assay on JAZ proteins, the “interaction with most JAZ proteins” value was “fail to interact”. With MYC3^E148A/M155A, the JAZ10.4 interaction result in the assay with JAZ10.4 is recorded as “strongly reduced”. Also, in the assay with MED25, the MED25 interaction result is reported as “still interacted”. In the case of MYC3^L152A, the JAZ10.4 interaction entry in the assay with JAZ10.4 is listed as “strongly reduced”. Moreover, the MED25 interaction result with MED25 is listed as “still interacted”. In the case of “tomato MYC2 D132N: tomato (Solanum lycopersicum) MYC2 protein with SEQ ID NO:19 modified to have a D132N mutation”, in the assay with Arabidopsis (tomato MYC2 variant overexpressed in Arabidopsis, data not shown), the “resistance to 5-MT” value is reported as “confers resistance”.

As to “wild type MYC2: Arabidopsis thaliana MYC2 sequence, SEQ ID NO:1 [reference compound]”, in the assay with phyB-9 mutant plants, the primary root length result was “improves primary root length”.

Turning to “wild-type MYC3: Arabidopsis thaliana MYC3 sequence, SEQ ID NO:3”, the 5-MT resistance entry in the assay with Arabidopsis is on record as “not”.

The values are drawn from patent US12428651B2, “Transcription factors to improve resistance to environmental stress in plants” (Board of Trustees of Michigan State University, priority 2016, dated 2025).
